In ChEMBL document CHEMBL5214987, “Scaffold hopping via ring opening enables identification of acyclic compounds as new complement Factor D inhibitors” (Bioorg Med Chem, 2022):

Key:
in vitro = settings: rabbit, rabbit erythrocytes
Description: Hemolytic activity against rabbit erythrocytes incubated for 30 mins in presence of human serum and measured by hemolysis assay

[1] = Cmax in male Sprague-Dawley rat at 2.5 mg/kg, iv; assay type: ADME, organism-based; set-up: dose 2.5 mg/kg, route iv; settings: in vivo
[2] = Tmax in male Sprague-Dawley rat at 10 mg/kg, po; assay type: ADME, organism-based; settings: in vivo
[3] = AUC (0 to 24 hrs) in male Sprague-Dawley rat at 10 mg/kg, po; assay type: ADME, organism-based; set-up: time < 24 hr, dose 10 mg/kg, route po; settings: in vivo
[4] = Tmax in male Sprague-Dawley rat at 2.5 mg/kg, iv; assay type: ADME, organism-based; settings: in vivo
[5] = Cmax in male Sprague-Dawley rat at 10 mg/kg, po; assay type: ADME, organism-based; set-up: dose 10 mg/kg, route po; settings: in vivo
[6] = AUC (0 to 24 hrs) in male Sprague-Dawley rat at 2.5 mg/kg, iv; assay type: ADME, organism-based; set-up: time < 24 hr, dose 2.5 mg/kg, route iv; settings: in vivo
[7] = Half-life in male Sprague-Dawley rat at 2.5 mg/kg, iv; assay type: ADME, organism-based; settings: in vivo
[8] = Half-life in male Sprague-Dawley rat at 10 mg/kg, po; assay type: ADME, organism-based; settings: in vivo
[9] = AUClast in male Sprague-Dawley rat at 2.5 mg/kg, iv; assay type: ADME, organism-based; set-up: time 0 - last, dose 2.5 mg/kg, route iv; settings: in vivo
[10] = AUClast in male Sprague-Dawley rat at 10 mg/kg, po; assay type: ADME, organism-based; set-up: time 0 - last, dose 10 mg/kg, route po; settings: in vivo
[11] = Clearance in male Sprague-Dawley rat at 2.5 mg/kg, iv; assay type: ADME, organism-based; settings: in vivo
[12] = MRTlast at steady state in male Sprague-Dawley rat at 2.5 mg/kg, iv; assay type: ADME, organism-based; settings: in vivo
[13] = MRTlast in male Sprague-Dawley rat at 10 mg/kg, po; assay type: ADME, organism-based; settings: in vivo
[14] = Initial plasma concentration in male Sprague-Dawley rat at 2.5 mg/kg, iv; assay type: ADME, organism-based
[15] = Oral bioavailability in male Sprague-Dawley rat at 10 mg/kg; assay type: ADME, organism-based; settings: in vivo
[16] = Volume of distribution at steady state in male Sprague-Dawley rat at 2.5 mg/kg, iv; assay type: ADME, organism-based; settings: in vivo, read-out: Vdss

SMILES: NC(=O)c1nn(CC(=O)N(CC(=O)NCc2cccc(Cl)c2F)C2CC2)c2ccc(NC(=O)NC3CCCCC3)cc12
- IC50 at 30 min (in vitro): 76 nM

SMILES: CCN(CC)CCNC(=O)Nc1ccc2c(c1)c(C(N)=O)nn2CC(=O)N(CC(=O)NCc1cccc(Cl)c1F)C1CC1
- IC50 at 30 min (in vitro): 110 nM

SMILES: NC(=O)c1nn(CC(=O)N(CC(=O)NCc2cccc(Cl)c2F)C2CC2)c2ccc(NC(=O)N3CCN(Cc4ccc(F)cc4)CC3)cc12
- IC50 at 30 min (in vitro): 17 nM

SMILES: NC(=O)c1nn(CC(=O)N2CCC[C@H]2C(=O)NCc2cccc(Cl)c2F)c2ccccc12
- Cmax [1]: 6740 ng/mL
- Tmax [2]: 30 min
- AUC(0-t) at 24 h [3]: 257 ng·h/mL
- Tmax [4]: 4.98 min
- Cmax [5]: 69.3 ng/mL
- AUC(0-t) at 24 h [6]: 3410 ng·h/mL
- half-life [7]: 298 min
- half-life [8]: 221 min

SMILES: COC(=O)c1ccc2c(C(N)=O)nn(CC(=O)N(CC(=O)NCc3cccc(Cl)c3F)C3CC3)c2c1
- IC50 at 30 min (in vitro): 220 nM

SMILES: NC(=O)c1nn(CC(=O)N(CC(=O)NCc2cccc(Cl)c2F)C2CC2)c2ccc(NC(=O)N3CCCC(F)(F)C3)cc12
- IC50 at 30 min (in vitro): 17 nM

SMILES: NC(=O)c1nn(CC(=O)N(CC(=O)NCc2cccc(Cl)c2F)C2CC2)c2ccc(NC(=O)N3CCN(C4CC4)CC3)cc12
- IC50 at 30 min (in vitro): 64 nM

SMILES: CC(C)(C)NC(=O)Nc1ccc2c(c1)c(C(N)=O)nn2CC(=O)N(CC(=O)NCc1cccc(Cl)c1F)C1CC1
- IC50 at 30 min (in vitro): 73 nM

SMILES: CC(C)(C)OC(=O)Nc1ccc2c(c1)c(C(N)=O)nn2CC(=O)N(CC(=O)NCc1cccc(Cl)c1F)C1CC1
- IC50 at 30 min (in vitro): 34 nM

SMILES: CN1CCC(N(C)C(=O)Nc2ccc3c(c2)c(C(N)=O)nn3CC(=O)N(CC(=O)NCc2cccc(Cl)c2F)C2CC2)CC1
- AUC(0-t) [9]: 3130 ng·h/mL
- AUC(0-t) [10]: 209 ng·h/mL
- clearance [11]: 13.5 mL/min/kg
- Tmax [2]: 30 min
- MRT last [12]: 21 min
- MRT last [13]: 119 min
- C0 [14]: 9650 ng/mL
- IC50 at 30 min (in vitro): 30 nM
- Cmax [5]: 113 ng/mL
- half-life [7]: 24.6 min
- bioavailability [15]: 1.7%
- Vd [16]: 0.3 L/kg
- half-life [8]: 69 min
